According to patent US12552824B2, “C-mannoside compounds useful for the treatment of urinary tract infections” (GLAXOSMITHKLINE INTELLECTUAL PROPERTY DEVELOPMENT LIMITED, priority 2018, dated 2026):

Molecular target: T1, FimH (Escherichia coli, UniProt Q1R2J4)
T1 construct: endogenous in cells; host or cells: E. coli UTI89 whole bacteria, agglutinating guinea pig red blood cells
Format: cell-based
Details: concentration reducing bacterial agglutination of guinea pig red blood cells by greater than 90%; UTI89 bacteria
Procedure: Hemagglutination Inhibition Assay (HAI)
The hemagglutination inhibition (HAI) assay was performed with UTI89 bacteria and guinea pig red blood cells, as previously described (S. J. Hultgren, W. R. Schwan, A. J. Schaeffer, J. L. Duncan Infect. Immun. 1986, 54, 613-620 and Jarvis, C.; Han, Z.; Kalas, V.; Klein, R.; Pinkner, J. S.; Ford, B.; Binkley, J.; Cusumano, C. K.; Cusumano, Z.; Mydock-McGrane, L.; Hultgren, S. J.; Janetka, J. W., ChemMedChem 2016, 11, 367-373).
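Note: concentration in nM.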

Row | Structure (SMILES) | HAI titer EC > 90
1 | Cc1cc(-c2cc(F)c(C(C)O)c(F)c2)ccc1C(O)C1OC(CO)C(O)C(O)C1O (mixture of isomers) [Example 95] | “++++” (<50 “++++”)
2 | Cc1cc(-c2cc(F)c(C(C)O)c(F)c2)ccc1[C@@H](O)[C@H]1O[C@H](CO)[C@@H](O)[C@H](O)[C@@H]1O (single isomer, unassigned) [Example 107] | “++++” (<50 “++++”)
3 | Cc1cc(-c2cc(F)c(C(C)O)c(F)c2)ccc1[C@@H](O)[C@H]1O[C@H](CO)[C@@H](O)[C@H](O)[C@@H]1O (single isomer, unassigned) [Example 108] | “++++” (<50 “++++”)
4 | Cc1cc(-c2cc(Cl)ccc2OC(C)C)ccc1[C@@H](O)[C@H]1O[C@H](CO)[C@@H](O)[C@H](O)[C@@H]1O [Example 10] | “++++” (<50 “++++”)
5 | Cc1cc(-c2cc(C)c(Cl)c(C)c2)ccc1[C@@H](O)[C@H]1O[C@H](CO)[C@@H](O)[C@H](O)[C@@H]1O [Example 12] | “+++” (50-200 “+++”)
6 | Cc1cc(-c2ccc([C@@H](O)[C@H]3O[C@H](CO)[C@@H](O)[C@H](O)[C@@H]3O)c(C)c2)cc(C(C)(C)C)c1 [Example 14] | “+++” (50-200 “+++”)
7 | Cc1cc(-c2cc(F)ccc2F)ccc1[C@@H](O)[C@H]1O[C@H](CO)[C@@H](O)[C@H](O)[C@@H]1O [Example 17] | “+++” (50-200 “+++”)
8 | Cc1cc(-c2cccc(F)c2F)ccc1[C@@H](O)[C@H]1O[C@H](CO)[C@@H](O)[C@H](O)[C@@H]1O [Example 18] | “+++” (50-200 “+++”)
9 | Cc1cc(-c2cc(Cl)c(Cl)cc2O)ccc1[C@@H](O)[C@H]1O[C@H](CO)[C@@H](O)[C@H](O)[C@@H]1O [Example 19] | “++++” (<50 “++++”)
10 | COc1cc(Cl)c(Cl)cc1-c1ccc([C@@H](O)[C@H]2O[C@H](CO)[C@@H](O)[C@H](O)[C@@H]2O)c(C)c1 [Example 20] | “++++” (<50 “++++”)
11 | Cc1cc(-c2cc(F)cc(Cl)c2)ccc1[C@@H](O)[C@H]1O[C@H](CO)[C@@H](O)[C@H](O)[C@@H]1O [Example 22] | “++++” (<50 “++++”)
12 | Cc1cc(-c2ccc(F)c(F)c2)ccc1[C@@H](O)[C@H]1O[C@H](CO)[C@@H](O)[C@H](O)[C@@H]1O [Example 23] | “+++” (50-200 “+++”)
13 | Cc1cc(-c2ccc(F)c(C(F)(F)F)c2)ccc1[C@@H](O)[C@H]1O[C@H](CO)[C@@H](O)[C@H](O)[C@@H]1O [Example 25] | “++++” (<50 “++++”)
14 | Cc1cc(-c2cc(Cl)cc(C(F)(F)F)c2)ccc1[C@@H](O)[C@H]1O[C@H](CO)[C@@H](O)[C@H](O)[C@@H]1O [Example 26] | “++++” (<50 “++++”)
15 | COc1cc(-c2ccc([C@@H](O)[C@H]3O[C@H](CO)[C@@H](O)[C@H](O)[C@@H]3O)c(C)c2)ccc1F [Example 27] | “+++” (50-200 “+++”)
16 | Cc1cc(-c2ccc(OC(F)(F)F)c(F)c2)ccc1[C@@H](O)[C@H]1O[C@H](CO)[C@@H](O)[C@H](O)[C@@H]1O [Example 28] | “+” (>1000 “+”)
17 | OC[C@H]1O[C@H]([C@H](O)c2ccc(-c3cc(F)cc(F)c3)cc2Cl)[C@@H](O)[C@@H](O)[C@@H]1O [Example 29] | “+++” (50-200 “+++”)
18 | Cc1cc(-c2ccc(Cl)c(C(F)(F)F)c2)ccc1[C@@H](O)[C@H]1O[C@H](CO)[C@@H](O)[C@H](O)[C@@H]1O [Example 30] | “++++” (<50 “++++”)
19 | Cc1cc(-c2ccc(F)c(OC(F)(F)F)c2)ccc1[C@@H](O)[C@H]1O[C@H](CO)[C@@H](O)[C@H](O)[C@@H]1O [Example 31] | “+++” (50-200 “+++”)
20 | COc1cc(OC)cc(-c2ccc([C@@H](O)[C@H]3O[C@H](CO)[C@@H](O)[C@H](O)[C@@H]3O)c(C)c2)c1 [Example 33] | “++++” (<50 “++++”)
21 | COc1cc(-c2ccc([C@@H](O)[C@H]3O[C@H](CO)[C@@H](O)[C@H](O)[C@@H]3O)c(C)c2)cc(F)c1F [Example 34] | “++++” (<50 “++++”)
22 | COc1c(F)cc(-c2ccc([C@@H](O)[C@H]3O[C@H](CO)[C@@H](O)[C@H](O)[C@@H]3O)c(C)c2)cc1F [Example 35] | “++++” (<50 “++++”)
23 | Cc1cc(-c2cc(F)cc(OC(F)(F)F)c2)ccc1[C@@H](O)[C@H]1O[C@H](CO)[C@@H](O)[C@H](O)[C@@H]1O [Example 36] | “++++” (<50 “++++”)
24 | Cc1cc(-c2cc(F)cc(F)c2)cc(F)c1[C@@H](O)[C@H]1O[C@H](CO)[C@@H](O)[C@H](O)[C@@H]1O [Example 37] | “++++” (<50 “++++”)
25 | Cc1cc(-c2ccc(C3CC3)c(F)c2)ccc1[C@@H](O)[C@H]1O[C@H](CO)[C@@H](O)[C@H](O)[C@@H]1O [Example 38] | “+++” (50-200 “+++”)
26 | COc1cc(-c2ccc([C@@H](O)[C@H]3O[C@H](CO)[C@@H](O)[C@H](O)[C@@H]3O)c(C)c2)cc(OC)c1F [Example 39] | “++++” (<50 “++++”)

Row | Structure (SMILES) | HAI titer EC > 90
27 | Cc1cc(-c2ccc([C@@H](O)[C@H]3O[C@H](CO)[C@@H](O)[C@H](O)[C@@H]3O)c(C)c2)c(F)cc1Cl [Example 40] | “+++” (50-200 “+++”)
28 | Cc1cc(-c2ccc(C(F)(F)F)c(Cl)c2)ccc1[C@@H](O)[C@H]1O[C@H](CO)[C@@H](O)[C@H](O)[C@@H]1O [Example 41] | “++++” (<50 “++++”)
29 | Cc1cc(-c2ccc(C(F)(F)F)cc2F)ccc1[C@@H](O)[C@H]1O[C@H](CO)[C@@H](O)[C@H](O)[C@@H]1O [Example 42] | “+++” (50-200 “+++”)
30 | Cc1cc(-c2cc(OC(F)(F)F)ccc2F)ccc1[C@@H](O)[C@H]1O[C@H](CO)[C@@H](O)[C@H](O)[C@@H]1O [Example 43] | “+++” (50-200 “+++”)
31 | Cc1cc(-c2cc(Cl)ccc2F)ccc1[C@@H](O)[C@H]1O[C@H](CO)[C@@H](O)[C@H](O)[C@@H]1O [Example 44] | “+++” (50-200 “+++”)
32 | Cc1cc(F)c(-c2ccc([C@@H](O)[C@H]3O[C@H](CO)[C@@H](O)[C@H](O)[C@@H]3O)c(C)c2)cc1F [Example 45] | “++++” (<50 “++++”)
33 | Cc1cc(-c2cc(C(F)(F)F)ccc2F)ccc1[C@@H](O)[C@H]1O[C@H](CO)[C@@H](O)[C@H](O)[C@@H]1O [Example 46] | “+++” (50-200 “+++”)
34 | Cc1cc(-c2cc(F)c(Cl)cc2F)ccc1[C@@H](O)[C@H]1O[C@H](CO)[C@@H](O)[C@H](O)[C@@H]1O [Example 47] | “++++” (<50 “++++”)
35 | Cc1cc(-c2cc(Cl)c(F)cc2F)ccc1[C@@H](O)[C@H]1O[C@H](CO)[C@@H](O)[C@H](O)[C@@H]1O [Example 48] | “+++” (50-200 “+++”)
36 | Cc1cc(-c2ccc(C(F)(F)F)c(F)c2F)ccc1[C@@H](O)[C@H]1O[C@H](CO)[C@@H](O)[C@H](O)[C@@H]1O [Example 49] | “+++” (50-200 “+++”)
37 | Cc1cc(Cl)c(-c2ccc([C@@H](O)[C@H]3O[C@H](CO)[C@@H](O)[C@H](O)[C@@H]3O)c(C)c2)cc1F [Example 50] | “+++” (50-200 “+++”)
38 | Cc1cc(-c2cc(F)cc(OC3CC3)c2)ccc1[C@@H](O)[C@H]1O[C@H](CO)[C@@H](O)[C@H](O)[C@@H]1O [Example 51] | “++++” (<50 “++++”)
39 | OC[C@H]1O[C@H]([C@H](O)c2c(F)cc(-c3cc(F)cc(F)c3)cc2Cl)[C@@H](O)[C@@H](O)[C@@H]1O [Example 52] | “+++” (50-200 “+++”)
40 | Cc1cc(-c2cc(F)c(C3CC3)c(F)c2)ccc1[C@@H](O)[C@H]1O[C@H](CO)[C@@H](O)[C@H](O)[C@@H]1O [Example 53] | “++++” (<50 “++++”)
41 | Cc1cc(-c2cc(C3CC3)ccc2F)ccc1[C@@H](O)[C@H]1O[C@H](CO)[C@@H](O)[C@H](O)[C@@H]1O [Example 54] | “+++” (50-200 “+++”)
42 | Cc1cc(-c2cc(Cl)ccc2OC(F)(F)F)ccc1[C@@H](O)[C@H]1O[C@H](CO)[C@@H](O)[C@H](O)[C@@H]1O [Example 55] | “+++” (50-200 “+++”)
43 | Cc1cc(-c2cc(Cl)c(C3CC3)cc2F)ccc1[C@@H](O)[C@H]1O[C@H](CO)[C@@H](O)[C@H](O)[C@@H]1O [Example 56] | “+++” (50-200 “+++”)
44 | Cc1ccc(-c2ccc([C@@H](O)[C@H]3O[C@H](CO)[C@@H](O)[C@H](O)[C@@H]3O)c(C)c2)cc1F [Example 57] | “+++” (50-200 “+++”)
45 | COc1cc(F)cc(-c2ccc([C@@H](O)[C@H]3O[C@H](CO)[C@@H](O)[C@H](O)[C@@H]3O)c(C(F)(F)F)c2)c1 [Example 58] | “++++” (<50 “++++”)
46 | OC[C@H]1O[C@H]([C@H](O)c2ccc(-c3cc(F)cc(C(F)(F)F)c3)cc2C(F)(F)F)[C@@H](O)[C@@H](O)[C@@H]1O [Example 59] | “++++” (<50 “++++”)
47 | Cc1cc(F)cc(-c2ccc([C@@H](O)[C@H]3O[C@H](CO)[C@@H](O)[C@H](O)[C@@H]3O)c(C)c2)c1 [Example 60] | “+++” (50-200 “+++”)
48 | Cc1cc(-c2cc(F)cc(C3CC3)c2)ccc1[C@@H](O)[C@H]1O[C@H](CO)[C@@H](O)[C@H](O)[C@@H]1O [Example 62] | “+++” (50-200 “+++”)
49 | COc1cc(-c2ccc([C@@H](O)[C@H]3O[C@H](CO)[C@@H](O)[C@H](O)[C@@H]3O)c(C)c2)cc(F)c1C [Example 63] | “++++” (<50 “++++”)
50 | COc1cc(C)cc(-c2ccc([C@@H](O)[C@H]3O[C@H](CO)[C@@H](O)[C@H](O)[C@@H]3O)c(C)c2)c1 [Example 65] | “+++” (50-200 “+++”)
51 | Cc1cc(-c2ccc(C(F)(F)F)c(C)c2)ccc1[C@@H](O)[C@H]1O[C@H](CO)[C@@H](O)[C@H](O)[C@@H]1O [Example 66] | “++++” (<50 “++++”)
